Results reported in PMC5410595, “In Vitro and In Silico Antidiabetic and Antimicrobial Evaluation of Constituents from Kickxia ramosissima (Nanorrhinum ramosissimum)” (Frontiers in Pharmacology, 2017).
pIC50: −log10 of the molar value. Values after ≈ are worked out from the molar mass of the structure shown. Values joined by “and” are separate entries in the source; they are usually repeats but may differ in a detail not shown here. Equal values may be shown once. “Also recorded” adds a separate entry of the source. Blank lines part the entries; values can stand above or below the molecule they belong to.

Assays:
[1] = test system: Microsporum canis, B68128 Janssen strain; assay: Antimicrobial screening panel: Microsporum canis; type: cell-based
Method: (§1) Fractions and isolated compounds were evaluated for antimicrobial activity in an integrated screening panel, also including the human MRC-5 cell line to assess selectivity, as reported before ([Cos et al., 2006]; [Mesia et al., 2008]; [Baldé et al., 2010]; [Amin et al., 2016]).

[2] = target: T1, α-glucosidase from Saccharomyces cerevisiae (Saccharomyces cerevisiae, UniProt P53341); assay: α-glucosidase inhibition assay; type: biochemical; design: inhibition: dose or concentration left out as unconfirmed; conditions: read-out: α-glucosidase % inhibition
T1 construct: purchased Sigma-Aldrich
Method: The α-glucosidase assay was carried out according as reported before ([Amin et al., 2016]). The test protocol is attached as Supplementary Material ([Amin et al., 2016]).
81 Inhibition of α-glucosidase.
82 α-Glucosidase inhibitory activity was assayed according to method adopted by Choudhary et al.
83 (2010) with some modifications. Briefly, 50 µL of a solution of α-glucosidase from
84 Saccharomyces cerevisiae (0.2 U/mL in 0.1 M phosphate buffer at pH 6.8, Sigma-Aldrich, St.
85 Louis, MO, USA) was incubated with 20 μL of test compounds or extracts at different
86 concentrations (ranging from 6 mM – 0.372 mM in 25% DMSO for isolated constituents or
87 from 5 mg to 0.039 mg/mL for extracts) at 37 °C for 10 min. Then 50 μl of the substrate,
88 p-nitrophenyl-α-D-glucopyranoside (0.7 mM stock, final concentration 0.29 mM) was added to
89 the reaction mixture and incubated again for 30 min at 37 °C. […]
91 from 834 µg to 6.5 µg/mL for extracts. The reaction was stopped by adding Na2CO3 (100 μl,
92 200 mM stock) solution and the absorbance was measured at 400 nm. Final DMSO
93 concentration remained below 7.5% during the assay.
94 concentration) was used as reference compound.
96 The % inhibition was calculated using the following formula:
98 % Inhibition = 100 – [OD (test sample) / OD (control)] × 100
100 Alpha-glucosidase inhibition was categorized as mild (1-25%), moderate (26-50%), high

[3] = test system: formation of AGEs (BSA-MGO); assay: BSA-MGO antiglycation assay; type: biochemical
Method: (§2) The BSA-glucose and BSA-MGO antiglycation assays were performed as reported before ([Amin et al., 2016]). The test protocol is attached as Supplementary Material ([Amin et al., 2016]).
60 Protein-glyoxal interaction (BSA-MGO assay)
61 The antiglycation assay using methylgloxyl (MGO) was performed according to the method
62 developed by Peng et al. (2007) with slight modifications. Briefly, methylglyoxal (135 μL, 5.75
63 mM) was incubated with BSA (135 μL, 10 mg/mL) dissolved in phosphate buffer (50 mM, pH
64 7.4, containing sodium azide (0.02%), added to prevent bacterial growth) and test compounds
65 (30 μL) at different final concentrations (1.5 – 0.023 mM) in 100% DMSO. The reaction
66 mixture was incubated at 37 °C for one week. Control solutions only contained methylglyoxal
67 (135 μL, 5.75 mM) BSA (135 μL, 1 0mg/mL) and DMSO (100%) only. The blank samples of
68 similar composition were also prepared simultaneously and kept at 4 °C for one week. The
70 440) due to formation of AGEs was monitored by spectrofluorometry (Tecan® Infinite M200,
71 Giessen, The Netherlands). Aminoguanidine (3-0.046 mM final concentration) was used as
72 reference compound. The AGEs inhibition was calculated as
74 % AGEs inhibition = [1–(S–Sb)/(C–Cb)] x 100
76 where S and C were fluorescence of test samples (in DMSO) and control (test mixtures
77 containing only DMSO) incubated at 37 °C, and where Sb and Cb were fluorescence for
78 samples incubated at 4 °C.
79 using Sigma plot® 13.0.

[4] = test system: formation of AGEs (BSA-glucose); assay: BSA-glucose antiglycation assay; type: biochemical; conditions: for pIC50: read-out: Protein glycation BSA-Glucose IC50
Method: as §2
28 Antiglycation assay (BSA-Glucose assay)
29 In the BSA-glucose assay the prevention of AGEs formation is investigated by determining the
30 fluorescence of the complex formed after incubation of a sugar (glucose) with protein (BSA) in
31 the presence or absence of test compounds. The antiglycation assay was performed according to
32 the method developed by Matsuura et al. (2002) with minor modifications. […]
37 DMSO. The mixtures were incubated at 60°C for 48 h. After incubation, the reaction mixture
38 was allowed to cool down at room temperature. Then 100 µL reaction mixture was transferred
39 to a new plastic tube (1.5 mL) and the reaction was stopped by adding 10 μL of 100% (w/v)
40 trichloroacetic acid (TCA) and to precipitate proteins. The TCA-added mixture was kept at 4°C
41 for 10 min, followed by centrifugation (14000 rpm, 4 °C, 4 min). The supernatant containing
42 unreacted D-glucose, test sample and interfering substances was discarded, whereas the
44 8.1 mM Na2HPO4, 2.68 mM KCl, 1.47 mM KH2PO4, […]). The change in fluorescence
46 of AGEs was monitored by spectrofluorometry (Tecan™ Infinite M200, Giessen, The
47 Netherlands). In order to eliminate interference by autofluorescence of the test compounds, a
48 parallel incubation of test substance with BSA at 60°C without D-glucose was performed for all
50 final concentration) were used as reference compounds.
51 The AGEs inhibition was calculated as
55 where F is the fluorescence intensity.
56 calculated using Sigma plot® 13.0.

15-LOX from soybean = target: T2, 15-LOX from soybean (Glycine max, UniProt P08170); assay: 15-lipoxygenase inhibition assay; type: biochemical; conditions: at the highest test concentration
T2 sequence (P08170 1-839): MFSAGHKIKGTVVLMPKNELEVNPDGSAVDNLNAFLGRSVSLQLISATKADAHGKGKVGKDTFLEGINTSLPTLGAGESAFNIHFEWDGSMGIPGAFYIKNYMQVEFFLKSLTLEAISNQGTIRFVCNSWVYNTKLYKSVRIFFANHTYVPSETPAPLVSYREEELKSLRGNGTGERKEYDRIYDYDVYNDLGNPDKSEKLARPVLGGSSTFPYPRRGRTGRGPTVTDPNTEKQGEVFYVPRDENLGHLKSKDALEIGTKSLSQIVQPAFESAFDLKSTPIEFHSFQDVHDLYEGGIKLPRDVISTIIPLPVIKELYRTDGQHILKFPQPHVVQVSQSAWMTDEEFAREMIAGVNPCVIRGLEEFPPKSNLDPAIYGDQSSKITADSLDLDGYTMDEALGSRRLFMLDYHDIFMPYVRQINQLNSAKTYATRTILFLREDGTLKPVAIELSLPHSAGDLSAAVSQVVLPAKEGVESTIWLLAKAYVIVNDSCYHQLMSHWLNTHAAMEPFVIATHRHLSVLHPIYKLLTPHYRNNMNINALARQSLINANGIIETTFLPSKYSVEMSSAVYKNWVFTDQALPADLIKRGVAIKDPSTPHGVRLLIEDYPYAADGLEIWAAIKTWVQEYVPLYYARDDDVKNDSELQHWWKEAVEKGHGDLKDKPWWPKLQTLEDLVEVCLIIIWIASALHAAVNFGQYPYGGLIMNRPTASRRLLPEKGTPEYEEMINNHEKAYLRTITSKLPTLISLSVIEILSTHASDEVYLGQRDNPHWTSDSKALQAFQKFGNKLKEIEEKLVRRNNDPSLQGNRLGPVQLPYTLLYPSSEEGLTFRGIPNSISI
Method: The soybean LOX assay is used as an indication of anti-inflammatory activity ([Muller, 1994]), and therefore during the present investigation, 15-LOX from soybean was used for peroxidation of linoleic acid, and inhibition was measured as described previously with slight modifications ([Malterud and Rydland, 2000]). Briefly, 12.5 μL (2–0.062 mM) of sample was dissolved in DMSO, and added to 487.5 μL of enzyme solution (200 U/mL). The mixture was incubated at room temperature for 5 min. Absorbance was recorded immediately after the addition of 500 μL of substrate (250 μM linoleic acid in 0.2 M borate buffer, pH 9) every minute up to 5 min at 234 nm.
% inhibition of enzyme activity was calculated as,
%inhibition of enzyme activity=([ΔA1/Δt]−[ΔA2/Δt])/(ΔA1/Δt)×100
where ΔA1/Δt and ΔA2/Δt are the increase rate in absorbance at 234 nm for sample without test substance and with test substance, respectively.

Escherichia coli = assay: Antimicrobial screening panel: Escherichia coli; type: cell-based
Method: as §1

[5] = test system: Trypanosoma cruzi, Tulahuen LacZ, clone C4; assay: Antimicrobial screening panel: Trypanosoma cruzi; type: cell-based
Method: as §1

[6] = test system: Trypanosoma brucei, Squib 427; assay: Antimicrobial screening panel: Trypanosoma brucei; type: cell-based
Method: as §1

[7] = test system: AAPH induced linoleic acid peroxidation; assay: Inhibition of linoleic acid lipid peroxidation, AAPH assay; type: biochemical; conditions: slope of inhibition time (Tinh) vs. concentration of antioxidant
Method: The inhibition of linoleic acid lipid peroxidation was studied according to [Liegeois et al. (2000)] and [Rajic et al. (2010)]. Briefly, 10 μL of a 16 mM linoleic acid dispersion and 10 μL of the test compound (8-1 μM final concentration) were added to the UV cuvette containing 0.93 mL of 0.05 M phosphate buffer, pH 7.4. The oxidation reaction was initiated under air by the addition of 50 μL (40 mM) of AAPH solution. The rate of oxidation at 37°C was monitored by recording the increase of absorption at 234 nm caused by conjugated diene hydroperoxides. The results were compared to the standard inhibitor (Trolox). The AOP is defined as the slope of the curve representing the inhibition time of oxidation (Tinh) vs. the concentration of antioxidant and is expressed in min/μM.

[8] = test system: Leishmania infantum, MHOM/MA/67/ITMAP263; assay: Antimicrobial screening panel: Leishmania infantum; type: cell-based
Method: as §1

T1 sequence (P53341 whole entry): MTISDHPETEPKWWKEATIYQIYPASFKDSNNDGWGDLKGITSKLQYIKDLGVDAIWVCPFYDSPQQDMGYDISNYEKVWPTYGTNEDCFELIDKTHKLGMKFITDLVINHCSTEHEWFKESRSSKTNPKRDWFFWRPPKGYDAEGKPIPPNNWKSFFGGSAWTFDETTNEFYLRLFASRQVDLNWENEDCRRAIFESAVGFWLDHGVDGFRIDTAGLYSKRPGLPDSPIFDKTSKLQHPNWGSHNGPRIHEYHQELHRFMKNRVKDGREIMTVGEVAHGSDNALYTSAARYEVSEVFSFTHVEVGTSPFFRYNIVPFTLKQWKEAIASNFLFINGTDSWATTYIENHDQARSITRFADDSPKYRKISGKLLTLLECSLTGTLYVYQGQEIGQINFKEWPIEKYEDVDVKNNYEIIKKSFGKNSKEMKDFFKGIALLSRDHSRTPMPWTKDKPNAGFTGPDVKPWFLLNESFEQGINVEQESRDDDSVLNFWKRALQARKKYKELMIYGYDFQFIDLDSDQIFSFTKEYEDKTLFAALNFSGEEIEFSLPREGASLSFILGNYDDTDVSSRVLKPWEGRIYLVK

Structure (SMILES): CC1(O)C(Cl)C(O)C2(O)C=COC(OC3OC(CO)C(O)C(O)C3O)C12 (centres unmarked) [Compound 4, Linarioside]
inhibition [2]: 29%
Protein glycation BSA-MGO % inhibition ([3]; isolated constituents, highest test concentration): 9%
Protein glycation BSA-Glucose % inhibition ([4]; isolated constituents, at the highest test concentration of 3 mM): did not present any activity; also recorded: no activity
15-LOX assay % inhibition (15-LOX from soybean): 8%

Structure (SMILES): O=C(Cn1ccnc1[N+](=O)[O-])NCc1ccccc1 [benznidazol, reference compound]
pIC50 [5]: 5.67

Structure (SMILES): N=C(N)NN [Aminoguanidine, reference compound]
pIC50 ([3]; read-out: Protein glycation BSA-MGO IC50): 3.82
IC50, BSA-glucose assay ([4]; fractions and positive control): 199 µg/mL (≈ 2690 µM)
pIC50 [4]: 2.76

Structure (SMILES): Cc1c(C)c2c(c(C)c1O)CCC(C)(C(=O)O)O2 (centres unmarked) [Trolox, reference compound]
AAPH assay AOP (antioxidant power) [7]: 14.12 min/μM and 14.12^c min/μM

More lines, now with the values ahead:

pIC50 [1]: 5.86
Structure (SMILES): CN(C/C=C/C#CC(C)(C)C)Cc1cccc2ccccc12 [terbinafin]

pIC50 (Escherichia coli): 5.62
Structure (SMILES): O=C(N[C@H](CO)[C@H](O)c1ccc([N+](=O)[O-])cc1)C(Cl)Cl [chloramphenicol]

pIC50 [6]: 7.52
Structure (SMILES): Cc1ccc(C(=O)Nc2ccc(S(=O)(=O)O)c3cc(S(=O)(=O)O)cc(S(=O)(=O)O)c23)cc1NC(=O)c1cccc(NC(=O)Nc2cccc(C(=O)Nc3cc(C(=O)Nc4ccc(S(=O)(=O)O)c5cc(S(=O)(=O)O)cc(S(=O)(=O)O)c45)ccc3C)c2)c1 [suramine]

pIC50 [4]: 3.64
Structure (SMILES): O=c1c(O)c(-c2ccc(O)c(O)c2)oc2cc(O)cc(O)c12 [Quercetin, reference compound]

pIC50 [8]: 5.04
Structure (SMILES): CCCCCCCCCCCCCCCCOP(=O)([O-])OCC[N+](C)(C)C [miltefosine]
